Laboratory results published in PubChem BioAssay (NCI).
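Cells were grown in 96-well plates and exposed to each compound for 48 hours at five concentrations; endpoints were interpolated linearly between bracketing concentrations, or set to the highest concentration if not reached. GI50 is the concentration that inhibits growth by half. TGI: concentration producing complete growth inhibition.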

Assays:
Experiment in all cases: NCI tumour cell line growth inhibition, 48 h
[1] = tested on: COLO 205 colon
[2] = tested on: NCI-H460 lung
[3] = tested on: T-47D breast
[4] = tested on: OVCAR-5 ovarian
[5] = tested on: DU-145 prostate
[6] = tested on: PC-3 prostate
[7] = tested on: CCRF-CEM leukemia
[8] = tested on: TK-10 renal
[9] = tested on: SK-MEL-2 melanoma
[10] = tested on: SF-539 CNS
[11] = tested on: UO-31 renal
[12] = tested on: MDA-MB-435
[13] = tested on: A498 renal
[14] = tested on: NCI/ADR-RES ovarian
[15] = tested on: HL-60(TB) leukemia
[16] = tested on: HCC-2998 colon
[17] = tested on: MOLT-4 leukemia
[18] = tested on: A549 NSCLC
[19] = tested on: UACC-257 melanoma
[20] = tested on: EKVX NSCLC
[21] = tested on: SF-268 CNS
[22] = tested on: SK-OV-3 ovarian
[23] = tested on: HCT-116 colon
[24] = tested on: M14 melanoma
[25] = tested on: SNB-19 CNS
[26] = tested on: RPMI-8226 leukemia
[27] = tested on: HOP-92 NSCLC
[28] = tested on: SW-620 colon
[29] = tested on: RXF 393 renal
[30] = tested on: OVCAR-4 ovarian
[31] = tested on: HT29 colon
[32] = tested on: K-562 leukemia
[33] = tested on: SNB-75 CNS
[34] = tested on: OVCAR-8 ovarian
[35] = tested on: HS 578T breast
[36] = tested on: SK-MEL-28 melanoma
[37] = tested on: LOX IMVI melanoma
[38] = tested on: UACC-62 melanoma
[39] = tested on: SR leukemia
[40] = tested on: MALME-3M melanoma
[41] = tested on: 786-0 renal
[42] = tested on: IGROV1 ovarian
[43] = tested on: MDA-MB-231 breast
[44] = tested on: U251 CNS
[45] = tested on: KM12 colon
[46] = tested on: CAKI-1 renal
[47] = tested on: NCI-H522 lung
[48] = tested on: OVCAR-3 ovarian
[49] = tested on: BT-549 breast
[50] = tested on: SK-MEL-5 melanoma
[51] = tested on: HCT-15 colon
[52] = tested on: HOP-62 NSCLC
[53] = tested on: ACHN renal
[54] = tested on: SN12C renal
[55] = tested on: MCF7 breast
[56] = tested on: SF-295 CNS
[57] = tested on: NCI-H226 lung

C[C@@H](Nc1c(C#N)cnc2ccc(-c3cnc(N)nc3)cc12)c1ccccc1
GI50 [1]: 3.06 µM | TGI [1]: 13.4 µM | GI50 [2]: 1.73 µM | TGI [2]: 44.6 µM | GI50 [3]: 0.907 µM | TGI [3]: 7.86 µM | GI50 [4]: 1.62 µM | TGI [4]: 83.8 µM | GI50 [5]: 1.91 µM | TGI [5]: > 100 µM | GI50 [6]: 1.54 µM | TGI [6]: 10.1 µM | GI50 [7]: 1.89 µM | TGI [7]: > 100 µM | GI50 [8]: 0.289 µM | TGI [8]: 3.45 µM | GI50 [9]: 1.76 µM | TGI [9]: 5.54 µM | GI50 [10]: 2.21 µM | TGI [10]: 12.8 µM | GI50 [11]: 0.31 µM | TGI [11]: 8.9 µM | GI50 [12]: 2.61 µM | TGI [12]: > 100 µM | GI50 [13]: 0.301 µM | TGI [13]: 3.48 µM | GI50 [14]: 2.87 µM | TGI [14]: 18.1 µM | GI50 [15]: 2.07 µM | TGI [15]: > 100 µM | GI50 [16]: 2.78 µM | TGI [16]: > 100 µM | GI50 [17]: 1.58 µM | TGI [17]: > 100 µM | GI50 [18]: 1.55 µM | TGI [18]: 13.7 µM | GI50 [19]: 2.79 µM | TGI [19]: 17.1 µM | GI50 [20]: 0.552 µM | TGI [20]: 5 µM | GI50 [21]: 3.22 µM | TGI [21]: > 100 µM | GI50 [22]: 2.16 µM | TGI [22]: 7.38 µM | GI50 [23]: 2.46 µM | TGI [23]: 11.1 µM | GI50 [24]: 2.8 µM | TGI [24]: 16.7 µM | GI50 [25]: 2.23 µM | TGI [25]: 60.6 µM | GI50 [26]: 0.588 µM | TGI [26]: 4.92 µM | GI50 [27]: 0.185 µM | TGI [27]: 1.11 µM | GI50 [28]: 3.73 µM | TGI [28]: > 100 µM | GI50 [29]: 0.886 µM | TGI [29]: 4.59 µM | GI50 [30]: 1.22 µM | TGI [30]: 7.87 µM | GI50 [31]: 2.43 µM | TGI [31]: > 100 µM | GI50 [32]: 2.49 µM | TGI [32]: > 100 µM | GI50 [33]: 1.58 µM | TGI [33]: 37.5 µM | GI50 [34]: 2.5 µM | TGI [34]: 24 µM | GI50 [35]: 1.19 µM | TGI [35]: 6.82 µM | GI50 [36]: 2.95 µM | TGI [36]: 26.9 µM | GI50 [37]: 1.64 µM | TGI [37]: 11 µM | GI50 [38]: 2.24 µM | TGI [38]: 10 µM | GI50 [39]: 2.38 µM | TGI [39]: > 100 µM | GI50 [40]: 1.59 µM | TGI [40]: 7.83 µM | GI50 [41]: 1.6 µM | TGI [41]: 36.4 µM | GI50 [42]: 0.454 µM | TGI [42]: 3.87 µM | GI50 [43]: 1.82 µM | TGI [43]: 50.4 µM | GI50 [44]: 2.13 µM | TGI [44]: 77.5 µM | GI50 [45]: 2.67 µM | TGI [45]: > 100 µM | GI50 [46]: 0.781 µM | TGI [46]: 11.6 µM | GI50 [47]: 1.73 µM | TGI [47]: 10.6 µM | GI50 [48]: 2.74 µM | TGI [48]: > 100 µM | GI50 [49]: 1.05 µM | TGI [49]: 6.34 µM | GI50 [50]: 1.84 µM | TGI [50]: 3.99 µM | GI50 [51]: 1.74 µM | TGI [51]: 22.6 µM | GI50 [52]: 1.98 µM | TGI [52]: 27.8 µM | GI50 [53]: 0.942 µM | TGI [53]: 40.9 µM | GI50 [54]: 1.14 µM | TGI [54]: 24.2 µM | GI50 [55]: 1.15 µM | TGI [55]: 17.3 µM | GI50 [56]: 1.38 µM | TGI [56]: 7.45 µM | GI50 [57]: 1.81 µM | TGI [57]: 12.7 µM
